Experimental data reported in US12509452B2, “Substituted-isoxazoline-containing aromatic compound, preparation method therefor, herbicidal composition and use thereof” (QINGDAO KINGAGROOT CHEMICAL COMPOUND CO., LTD., priority 2019, dated 2025).

Legend:
Assay in all cases: weeding effect in post-emergence stage
Type in all cases: in vivo
[1] = tested on: Rorippa indica
Excerpt: (§1) The activity level criteria for plant damage (i.e., growth control rate) are as follows: • Level 5: growth control rate is above 85%; • Level 4: growth control rate is greater than or equal to 60% and less than 85%; • Level 3: growth control rate is greater than or equal to 40% and less than 60%; • Level 2: growth control rate is greater than or equal to 20% and less than 40%; • Level 1: growth control rate is greater than or equal to 5% and less than 20%; • Level 0: growth control rate is less than 5%.
(§2) The above growth control rates are fresh weight control rates.
(§3) Experiment on weeding effect in post-emergence stage:
(§4) Monocotyledonous and dicotyledonous weed seeds (Descurainia sophia, Capsella bursa-pastoris, Abutilon theophrasti, Galium aparine, Stellaria media, Lithospermum arvense, Rorippa indica, Alopecurus aequalis, Alopecurus japonicus, Beckmannia syzigachne, Sclerochloa dura, Conyza Canadensis, Phleum paniculatum, Veronica didyma Tenore, Bromus japonicus, Aegilops tauschii, Phalaris arundinacea, Amaranthus retroflexus, Chenopodium album, Commelina communis, Sonchus arvensis, Convolvulus arvensis, Cirsium setosum, Solanum nigrum, Acalypha australis, Digitaria sanguinalis, Echinochloa crusgalli, Setaria viridis, Setaria glauca, Leptochloa chinensis, Monochoria vaginalis, Sagittaria trifolia, Scirpus juncoides, Cyperus rotundus, Cyperus iria, Cyperus difformis, Fimbristylis, Portulaca oleracea, Xanthium sibiricum, Pharbitis nil, Conyza japonica, etc.) and major crop seeds (wheat, corn, rice, soybean, cotton, oilseed rape, millet, sorghum, potato, sesame, ricinus, etc.) were placed in plastic pots filled with soil, then covered with 0.5-2 cm of soil, allowed to grow in a good greenhouse environment. After 2 weeks of sowing, the test plants were treated in the 2-3 leaf stage. The tested compounds of the present invention were respectively dissolved in acetone, then added with Tween 80 and 1.5 liter/ha of emulsifiable concentrate of methyl oleate as synergist, diluted with a certain amount of water to obtain a solution with a certain concentration, and sprayed with a spray tower onto the plants. After the application, the plants were cultured for 3 weeks in the greenhouse, and then the experimental results of the weeding were counted. The doses of the used compounds were 500, 250, 125, 60, 15, 7.5 g a.i./ha, and the averages were obtained by repeating for three times.

[2] = tested on: Alopecurus japonicus
Excerpt: as §1, §2, §3, §4

[3] = tested on: Beckmannia syzigachne
Excerpt: as §1, §2, §3, §4

[4] = tested on: Conyza japonica
Excerpt: as §1, §2, §3, §4

Structure (SMILES)	weeding effect in post-emergence stage, Rorippa indica (activity level) ([1]; dose 15 g a.i./ha)	weeding effect in post-emergence stage, Rorippa indica (activity level) ([1]; dose 125 g a.i./ha)	weeding effect in post-emergence stage, Alopecurus japonicus (activity level) ([2]; dose 125 g a.i./ha)	weeding effect in post-emergence stage, Beckmannia syzigachne (activity level) ([3]; dose 125 g a.i./ha)	weeding effect in post-emergence stage, Conyza japonica (activity level) ([4]; dose 15 g a.i./ha)	weeding effect in post-emergence stage, Conyza japonica (activity level) ([4]; dose 125 g a.i./ha)	weeding effect in post-emergence stage, Alopecurus japonicus (activity level) ([2]; dose 15 g a.i./ha)	weeding effect in post-emergence stage, Beckmannia syzigachne (activity level) ([3]; dose 15 g a.i./ha)
CCOCC1(C(=O)OCC)CC(c2cc(-n3c(=O)n(C)c(=S)n(C)c3=O)c(F)cc2Cl)=NO1 (racemic) [Compound 43]	5 (Level 5: growth control rate is above 85%)	5 (Level 5: growth control rate is above 85%)	5 (Level 5: growth control rate is above 85%)	5 (Level 5: growth control rate is above 85%)	4 (Level 4: growth control rate is greater than or equal to 60% and less than 85%)	5 (Level 5: growth control rate is above 85%)		
CCOC(=O)COCC1(C(=O)OCC)CC(c2cc(-n3c(=O)n(C)c(=S)n(C)c3=O)c(F)cc2Cl)=NO1 (racemic) [Compound 54]		5 (Level 5: growth control rate is above 85%)	5 (Level 5: growth control rate is above 85%)	5 (Level 5: growth control rate is above 85%)		5 (Level 5: growth control rate is above 85%)		
COC(=O)C1(c2ccccc2)CC(c2cc(-n3c(=O)n(C)c(=S)n(C)c3=O)c(F)cc2Cl)=NO1 (racemic) [Compound 56]		5 (Level 5: growth control rate is above 85%)	5 (Level 5: growth control rate is above 85%)	5 (Level 5: growth control rate is above 85%)		5 (Level 5: growth control rate is above 85%)		
COC(=O)C1(Cc2ccccc2)CC(c2cc(-n3c(=O)n(C)c(=S)n(C)c3=O)c(F)cc2Cl)=NO1 (racemic) [Compound 59]		5 (Level 5: growth control rate is above 85%)	5 (Level 5: growth control rate is above 85%)	5 (Level 5: growth control rate is above 85%)		5 (Level 5: growth control rate is above 85%)		
CCOC(=O)C1(CC)CC(c2cc(-n3c(=O)cc(C(F)(F)F)n(C)c3=O)c(F)cc2Cl)=NO1 (racemic) [Compound 105]	5 (Level 5: growth control rate is above 85%)	5 (Level 5: growth control rate is above 85%)	5 (Level 5: growth control rate is above 85%)	5 (Level 5: growth control rate is above 85%)	5 (Level 5: growth control rate is above 85%)	5 (Level 5: growth control rate is above 85%)	5 (Level 5: growth control rate is above 85%)	5 (Level 5: growth control rate is above 85%)
CCOC(=O)C1(C2CC2)CC(c2cc(-n3c(=O)cc(C(F)(F)F)n(C)c3=O)c(F)cc2Cl)=NO1 (racemic) [Compound 119]	5 (Level 5: growth control rate is above 85%)	5 (Level 5: growth control rate is above 85%)	5 (Level 5: growth control rate is above 85%)	5 (Level 5: growth control rate is above 85%)	5 (Level 5: growth control rate is above 85%)	5 (Level 5: growth control rate is above 85%)	5 (Level 5: growth control rate is above 85%)	5 (Level 5: growth control rate is above 85%)
CCOC(=O)C1(C2CCC2)CC(c2cc(-n3c(=O)cc(C(F)(F)F)n(C)c3=O)c(F)cc2Cl)=NO1 (racemic) [Compound 126]		5 (Level 5: growth control rate is above 85%)	5 (Level 5: growth control rate is above 85%)	5 (Level 5: growth control rate is above 85%)		5 (Level 5: growth control rate is above 85%)		
COC(=O)C1(F)CC(c2cc(-n3c(=O)cc(C(F)(F)F)n(C)c3=O)c(F)cc2Cl)=NO1 (racemic) [Compound 129]		5 (Level 5: growth control rate is above 85%)	5 (Level 5: growth control rate is above 85%)	5 (Level 5: growth control rate is above 85%)		5 (Level 5: growth control rate is above 85%)		
CCOC(=O)C1(CF)CC(c2cc(-n3c(=O)cc(C(F)(F)F)n(C)c3=O)c(F)cc2Cl)=NO1 (racemic) [Compound 132]		5 (Level 5: growth control rate is above 85%)	5 (Level 5: growth control rate is above 85%)	5 (Level 5: growth control rate is above 85%)		5 (Level 5: growth control rate is above 85%)		
CCOC(=O)C1(C(F)F)CC(c2cc(-n3c(=O)cc(C(F)(F)F)n(C)c3=O)c(F)cc2Cl)=NO1 (racemic) [Compound 134]		5 (Level 5: growth control rate is above 85%)	5 (Level 5: growth control rate is above 85%)	5 (Level 5: growth control rate is above 85%)		5 (Level 5: growth control rate is above 85%)		
CCOC(=O)C1(C(F)(F)F)CC(c2cc(-n3c(=O)cc(C(F)(F)F)n(C)c3=O)c(F)cc2Cl)=NO1 (racemic) [Compound 135]		5 (Level 5: growth control rate is above 85%)	5 (Level 5: growth control rate is above 85%)	5 (Level 5: growth control rate is above 85%)		5 (Level 5: growth control rate is above 85%)		
CCOC(=O)C1(CCF)CC(c2cc(-n3c(=O)cc(C(F)(F)F)n(C)c3=O)c(F)cc2Cl)=NO1 (racemic) [Compound 136]		5 (Level 5: growth control rate is above 85%)	5 (Level 5: growth control rate is above 85%)	5 (Level 5: growth control rate is above 85%)		5 (Level 5: growth control rate is above 85%)		
CCOC(=O)C1(CO)CC(c2cc(-n3c(=O)cc(C(F)(F)F)n(C)c3=O)c(F)cc2Cl)=NO1 (racemic) [Compound 142]		5 (Level 5: growth control rate is above 85%)	5 (Level 5: growth control rate is above 85%)	5 (Level 5: growth control rate is above 85%)		5 (Level 5: growth control rate is above 85%)		
CCOC(=O)C1(C=O)CC(c2cc(-n3c(=O)cc(C(F)(F)F)n(C)c3=O)c(F)cc2Cl)=NO1 (racemic) [Compound 152]		5 (Level 5: growth control rate is above 85%)	5 (Level 5: growth control rate is above 85%)	5 (Level 5: growth control rate is above 85%)		5 (Level 5: growth control rate is above 85%)		
CCOC(=O)C1(COC=O)CC(c2cc(-n3c(=O)cc(C(F)(F)F)n(C)c3=O)c(F)cc2Cl)=NO1 (racemic) [Compound 218]		5 (Level 5: growth control rate is above 85%)	5 (Level 5: growth control rate is above 85%)	5 (Level 5: growth control rate is above 85%)		5 (Level 5: growth control rate is above 85%)		
